{"source": "patent US12447129B2", "about": "“Solid dosage form production” (University of Lancashire, priority 2014, dated 2025)", "origin": "cited, not measured here", "key": {"[1]": {"conditions": "plasticiser alone; input to the calculation"}, "[2]": {"conditions": "at 25° C."}}}
{"smiles": "CCOC(=O)CC(O)(CC(=O)OCC)C(=O)OCC", "note": "[TEC]", "values": [{"measurement": "Tg (K) plasticiser", "setting": "[1]", "value": 203.55, "unit": "K"}]}
{"smiles": "CC(=O)OCC(COC(C)=O)OC(C)=O", "note": "[Triacitin]", "values": [{"measurement": "Tg (K) plasticiser", "setting": "[1]", "value": 193.7, "unit": "K"}]}
{"smiles": "Cn1c(=O)c2[nH]cnc2n(C)c1=O", "note": "[theophylline]", "values": [{"measurement": "water sol.", "setting": "[2]", "value": 7360, "unit": "mg/L"}]}
